Measurements reported in patent publication US20240199601A1, “QUINONE COMPOUND AND PHARMACEUTICAL USE THEREOF” (NANJING SHUPENG LIFE SCIENCE CO., LTD., priority 2021, published 2024).
Entries after “also recorded” stand apart in the source; their conditions may differ. Where two headings read alike, the source gives them in different places.

Experiments:
[1] = system: inflammatory pain model (complete Freund's adjuvant); assay: Inflammatory pain model (complete Freund's adjuvant), mechanical pain threshold; assay type: in vivo, SD rats; conditions: for duration of the analgesic effect / analgesic effect 1.5 hours after oral administration: single oral dose (SP3101 20 mg/kg); for analgesic effect 1.5 hours after oral administration: mechanical pain threshold vs model group
Method: 4 SD rats with a body weight of 200-250 g were used as a blank control (NC), and normal saline was injected into the soles of the left feet of the rats. Inflammatory pain models of 18 rats were constructed, that is to say, 100 μL of a complete Freund's adjuvant was injected into soles of the left feet of the rats, mechanical pain thresholds of the left feet were detected by an ALMEMO2490 data collector 24 hours later, 2 rats with a pain threshold of greater than 15 were abandoned, and the other 16 rats were randomly divided into 4 groups with 4 rats in each group and then administered with water as a positive control (PC), SP3101 (20 mg/kg), PQQ (20 mg/kg) and ibuprofen (25 mg/kg/day) by gavage, respectively.

AMPK [2] = assay: AMPK phosphorylation level in a variety of cells; assay type: cell-based; conditions: 100 nM
rats = conditions: oral, cited from earlier work
humans = conditions: cited from earlier work
[3] = cited from earlier work
[4] = beagles; cited from earlier work
acetaldehyde = conditions: 11.5 mg/kg body weight i.p. before ethanol by gavage; cited from earlier work
[5] = system: chronic constriction injury (CCI) model; conditions: CCI model of rats; cited from earlier work
[6] = cited from earlier work; remark: listed apart in the source
AMPK [7] = assay: AMPK agonist test in RAW264.7 cells (protein hybridization, p-AMPK); assay type: cell-based; conditions: 0.1 μM, 24 hours
Method: (§1) RAW264.7 cells were inoculated into two six-well plates and enabled to grow to a density of about 90%, and SP3101 and SP3102 of different concentrations were added, respectively. 24 hours later, the cells were lysed with a radio immunoprecipitation assay (RIPA) lysis buffer, and the expression of proteins was detected by protein hybridization.
(§2) Phosphorylation of serine at the 127th site of AMPK is used as an activation marker. […] It can be seen that the compounds, represented by the SP3101 and the SP3102, of the present invention are used as an AMPK agonist.

[8] = system: antioxidant transcription factor (Nrf2); assay: Nrf2 expression in RAW264.7 cells (protein hybridization); assay type: cell-based; conditions: different concentrations, 24 hours
Method: as §1, §2

[9] = system: autophagy related protein (LC3B); assay: LC3B expression in RAW264.7 cells (protein hybridization); assay type: cell-based; conditions: different concentrations, 24 hours
Method: as §1, §2

[10] = 20 mg/kg/day orally for three days, rats
[11] = human volunteers, 60 mg/day for one month

O=C(O)c1cc(C(=O)O)c2c(n1)C(=O)C(=O)c1cc(C(=O)O)[nH]c1-2 [PQQ, 4,5-dihydro-4,5-dioxo-1H-pyrrolo(2,3-f)quinone-2,7,9-tricarboxylic acid]
analgesic effect 1.5 hours after oral administration on the first day [1, 10]: No analgesic effect | analgesic effect on day 2/3/4/5/6/7 [1, 10]: obvious analgesic effect | phosphorylation level of the AMPK (AMPK [2]): significantly up-regulate | Adverse response (rats; female rats, 14 days): Reversible; also recorded: Increased kidney; also recorded: Increased urine | Median lethal dose (LD50) (rats; female rats, 14 days): 500-1,000 mg/kg/day | Adverse response (rats; female rats, 91 days, 400 mg/kg/day): None | Adverse response (rats; male rats, 14 days): None | Median lethal dose (LD50) (rats; male rats, 14 days): 1,000-2,000 mg/kg/day | Adverse response (rats; male rats, 91 days, 400 mg/kg/day): None | safe dose determined by the FDA (rarely adverse events) (humans; healthy adults, body weight about 60 kg, every day): 240 mg | adverse responses (humans; [11]): no adverse responses | changes of kidney injury markers (humans; [11]): no changes of kidney injury markers | excreted by the kidney (through urine) ([3]; 24 hours after the administration): 80% | absorbed by the small intestines ([3]; after oral administration): about 60% | bioavailability [4]: about 12% | concentration of acetaldehyde vs control group (acetaldehyde): much lower concentration of acetaldehyde | concentration of ethanol in the blood and liver vs control group (acetaldehyde): no obvious differences | analgesic effect [5]: had an analgesic effect | solubility in water [6]: slightly soluble in water

CC(=O)Oc1cc(C(=O)O)c2c(n1)C(=O)C(=O)c1cc[nH]c1-2 [SP3102, 7-acetoxy-4,5-dioxo-4,5-dihydro-1H-pyrrolo[2,3-f]quinone-9-carboxylic acid]
duration of the analgesic effect ([1]; rats): 72 h | analgesic effect 1.5 hours after oral administration ([1]; rats): obvious analgesic effect | activation of AMPK (expression of p-AMPK) (AMPK [7]): obviously activate the AMPK | expression of antioxidant transcription factor (Nrf2) [8]: increased in a dose-dependent manner | expression of autophagy related protein (LC3B) [9]: also increased | phosphorylation level of the AMPK (AMPK [2]): significantly up-regulate

COc1cc(C(=O)O)c2c(n1)C(=O)C(=O)c1cc[nH]c1-2 [SP3103, 7-methoxy-4,5-dioxo-4,5-dihydro-1H-pyrrolo[2,3-f]quinone-9-carboxylic acid]
duration of the analgesic effect ([1]; rats): 72 h | analgesic effect 1.5 hours after oral administration ([1]; rats): obvious analgesic effect

CC(C)Cc1ccc(C(C)C(=O)O)cc1 (stereo not drawn) [ibuprofen]
analgesic effect 1.5 hours after each oral administration ([1]; 25 mg/kg once a day orally for 3 days, day 1/2/3, rats): obvious analgesic effect | analgesic effect before administration ([1]; 25 mg/kg once a day orally, rats, data not shown): no analgesic effect | analgesic effect on the fourth day without administration ([1]; after 25 mg/kg once a day orally for 3 days, rats): no analgesic effect
